Like-named read-outs stand apart in the source and are kept apart here.
Key:
[1] = Oral gavage pharmacokinetic experiment with rats; assay type: in vivo, Wistar rats; conditions: rat
Experimental: Male and female Wistar rats weighing approximately 220 g were obtained from Bharat Serum and Vaccines Pvt. Ltd., Thane, India (registration number 103/99/CPCSEA) and were housed at CU Shah College of Pharmacy, SNDT Women's University, Santacruz, Mumbai, India (registration number 39/99/CPCSEA) where the experiments were carried out. Rats of 7-8 weeks of age were fasted overnight and used for the experiments.
A pellitorine dose solution was prepared using the Anacyclus pyrethrum extract. To the rats, 1.5 mL of a 0.73 mg pellitorine/g dose solution in 10 : 20 : 30 : 40 (w/w/w/w) EtOH : PG : Vit E-TPGS : PEG 400 was administered using a gavage needle (stainless steel, length of 3 inches, and 2.5 mm internal diameter). As blank, a solution containing EtOH, PG, Vit E-TPGS, and PEG without pellitorine was used. Each dose solution was orally administered to three female and three male rats. 1.5 mL blood was collected from the retro orbital vein at 1, 2, 3, 4, 6, and 8 h after administration of the dose solution and was centrifuged for 20 min at room temperature. Thereafter, the serum samples were immediately frozen at −80°C until bioanalysis. The animals were sacrificed at the end of the experiment by CO2 inhalation. Using GraphPad software (La Jolla, USA), the elimination rate constant k e (h^−1) is calculated using the following equation of a one-compartment model: C(t) = C 0 × e ^−ke×t, in which C(t) (ng/mL) is the concentration of pellitorine at time t (h) and C 0 the concentration of pellitorine at time t = 0 (ng/mL). The elimination half-life t 1/2,e (h) is calculated as ln(2)/k e.

[2] = Capillary depletion experiment in mice; assay type: in vivo, ICR-CD-1 mice; conditions: 10 min after intravenous injection; for Kp at 10 min: female, ICR-CD-1, mouse, 36 μg/mouse
Experimental: A capillary depletion experiment was performed to distinguish the transport of pellitorine into the brain, represented by the parenchyma, and part of pellitorine which is trapped by the endothelial cells of the brain, represented by the capillaries. A method of Triguero et al. was used, which was modified by Gutierrez et al.. The mice were anesthetized intraperitoneally with 40% (w/V) urethane solution (3 g/kg). Thereafter, 20 μL of the 1.8 mg/mL pellitorine dose solution was injected into the jugular vein. Ten min after injection, blood was collected from the abdominal aorta and serum was obtained by centrifuging the blood at 10 000 ×g during 15 min at 21°C. Then, after removing the skin of the mice's chest, the aorta is clamped, the jugular veins are severed, and the brain is immediately perfused manually with 20 mL of Lactated Ringer's solution. The mice are decapitated, and the brains are isolated, weighed, and put into tubes (LoBind Eppendorf), to which 525 μL ice-cold capillary buffer (10 mM HEPES, 141 mM NaCl, 4 mM KCl, 2.8 mM CaCl2, 1 mM MgSO4, 1 mM NaH2PO4, and 10 mM D-glucose adjusted to pH 7.4) was added. The tubes (LoBind Eppendorf) were homogenized. Next, 1000 μL of 26% ice-cold dextran solution in capillary buffer was added and vortexed and the tubes were subsequently centrifuged at 20 000 ×g for 60 min at 4°C. Parenchyma and fat tissue (supernatant) were transferred into separate tubes (LoBind Eppendorf) and weighed. The capillaries (pellet) were kept in the original tube. The sample preparation of the pellet and the supernatant is the same sample preparation method as used for the mice brains and mice serum, respectively, as described in Section 2.6.
The distribution in the brains was calculated as follows: (5) Fraction%=Mtissue/Mcapillaries+Mparenchyma×100 in which M tissue is the amount of pellitorine in the capillaries and parenchyma, M capillaries the amount of pellitorine in the capillaries, and M parenchyma the amount of pellitorine in the parenchyma. The capillary depletion experiment was performed in duplicate and mean values are reported.

- k el ([1]; both sexes, Wistar, serum, po, 5 mg pellitorine/kg, oral gavage, 5 mg pellitorine/kg (Anacyclus pyrethrum extract dose solution), one-compartment model, read-out: serum elimination rate constant k e (converted)): 8.33e-05 s⁻¹
- half-life ([1]; both sexes, Wistar, serum, oral gavage, 5 mg pellitorine/kg, one-compartment model, read-out: elimination half-life t 1/2,e (converted)): 2.46 h
- maximum serum concentration ([1]; oral administration of 5 mg pellitorine/kg): 26 ng/mL
- serum elimination rate constant k e ([1]; oral gavage, 5 mg pellitorine/kg (Anacyclus pyrethrum extract dose solution), one-compartment model): 0.28 h⁻¹
- fraction in brain capillaries ([2]; mean of duplicate): 3%
- fraction in brain parenchyma ([2]; mean of duplicate): 97%
- Kp at 10 min ([2]; brain capillaries (relative to serum), read-out: brain capillaries, brain/serum ratio): 0.01
- Kp at 10 min ([2]; brain parenchyma (relative to serum), read-out: brain parenchyma, brain/serum ratio): 0.347
SMILES: CCCCC/C=C/C=C/C(=O)NCC(C)C [pellitorine, deca-2E,4E-dienoic acid isobutylamide]
